From patent US20170058314A1, “NOVEL METHODOLOGY FOR IDENTIFYING ANTI-PERSISTER ACTIVITY AND ANTIMICROBIAL SUSCEPTIBILITY FOR BORRELIA BURGDORFERI AND OTHER BACTERIA” (priority 2014, published 2017)
Values after ≈ are worked out from the molar mass of the structure shown. Read-outs that look alike come from different tables or passages of the source. Starred links: 1 amine or outer side, 2 acyl side, 3 side chain; linkers in the order of their positions; H or OH if unused. Positions of bridges follow the written chain, without caps; N, C: chain ends. Non-standard residues stand in square brackets, D forms with d. Residues, ends and D or L forms follow the SMILES beside them. Chains are numbered I, II in the order given. Actinocin(9to1) = Cc1c2oc3c(C)ccc(C(=O)[*:1])c3nc-2c(C(=O)[*:2])c(N)c1=O; NMeV = CN[C@H](C(=O)O)C(C)C; Sar = CNCC(=O)O

Experiments:
[1] = system: B. burgdorferi (growing, strain B31); assay: MIC determination, standard microdilution method; assay type: cell-based, Borrelia burgdorferi; settings: growing B. burgdorferi
[2] = system: stationary phase B. burgdorferi persisters (strain B31); assay: NCI compound library screen, SYBR Green I/PI assay (plate reader); settings: for viability at 20 µM / viability at 50 µM: Borreliella burgdorferi, 168 h; for viability at 20 µM: read-out: Residual viable cells (%) 20 μM (SYBR Green I/PI assay); for viability at 50 µM: read-out: Residual viable cells (SYBR Green I/PI assay); for Residual viable cells (%) 20 μM (SYBR Green I/PI assay): seven day old stationary phase; for Residual viable cells (%) 20 μM (SYBR Green I/PI assay) / Residual viable cells (SYBR Green I/PI assay): 7 days; for Residual viable cells (SYBR Green I/PI assay): 50 μM, seven day old stationary phase culture
[3] = system: stationary phase B. burgdorferi persisters (strain B31); assay: NCI compound library rescreen, epifluorescence microscope counting; settings: for viability at 50 µM / viability at 20 µM: Borreliella burgdorferi, 168 h; for viability at 20 µM: read-out: Residual viable cells (%) 20 μM (epifluorescence microscope counting); for Residual viable cells (%) 20 μM (epifluorescence microscope counting) / Residual viable cells (%) 50 μM (epifluorescence microscope counting): seven day old stationary phase; for Residual viable cells (%) 20 μM (epifluorescence microscope counting) / Residual viable cells (epifluorescence microscope counting) / Residual viable cells (%) 50 μM (epifluorescence microscope counting): 7 days; for Residual viable cells (epifluorescence microscope counting) / Residual viable cells (%) 50 μM (epifluorescence microscope counting): 50 μM; for Residual viable cells (epifluorescence microscope counting): seven day old stationary phase culture
[4] = Borreliella burgdorferi, read-out: MIC
[5] = read-out: Activity against persisters (residual viable cell percentage)
[6] = read-out: Residual viable cells (%) 50 μM (epifluorescence microscope counting)
[7] = read-out: Residual viable cells (epifluorescence microscope counting)

CC1Oc2cc3c(-c4c(O)cc(O)c5c(O)c6c(cc45)OC(C)C(C)C6=O)c(O)cc(O)c3c(O)c2C(=O)C1C (stereo not drawn) [NSC345647, Chaetochromin]
MIC [1, 4]: 2.74 to 5.47 mg/L (≈ 5.01 to 10 µM) | viability at 20 µM [2]: 31% | viability at 50 µM [2]: 8% | viability at 50 µM [3, 5]: 22% | viability at 20 µM [3]: 33% | viability at 50 µM [3, 6]: 22% | viability at 50 µM [3, 7]: 22%

N=C(Nc1nc(-c2ccccn2)cc2ccccc12)c1ccccn1 [NSC637578, N-[3-(2-Pyridyl)isoquinolin-1-yl]-2-pyridinecarboxamidine]
viability at 50 µM [2]: 46% | viability at 50 µM [3, 7]: 26%

Cc1cc(O)c2c(c1)C(=O)c1cc(O)cc(O)c1C2=O [NSC408120, Emodin]
viability at 50 µM [2]: 18% | viability at 50 µM [3, 7]: 31%

O=C1c2ccccc2C(=O)c2c(NCCNCCO)ccc(O)c21 [NSC299187, 9,10-Anthracenedione, 1-hydroxy-4-[[2-[(2-hydroxyethyl)amino]ethyl]amino]-]
MIC [1, 4]: 3.26 to 6.52 mg/L (≈ 9.99 to 20 µM) | viability at 50 µM [2]: 5% | viability at 50 µM [3, 5]: 13% | viability at 50 µM [3, 7]: 13%

Cc1c2cc[n+](CCN3CCCCC3)cc2c(C)c2c1[nH]c1ccc(O)cc12 [NSC311153, 9-Hydroxy-2-(2-piperidinylethyl)ellipticinium acetate]
viability at 50 µM [2]: 45% | viability at 50 µM [3, 7]: 26%

CCN(CC)c1ccc2cc3ccc(=[N+](CC)CC)cc-3oc2c1.[Cl-] [NSC44690, Pyronin B]
MIC [1]: 1.8 to 3.6 mg/L

COc1cccc2c1C(=O)c1c(O)c3c(c(O)c1C2=O)C[C@@](O)(/C(C)=N\O)C[C@@H]3OC1CC(N)C(O)C(C)O1.Cl (stereo partly drawn) [NSC143491, Daunomycin 3-oxime hydrochloride]
MIC [1, 4]: ≤ 0.36 mg/L | viability at 50 µM [2]: 0% | viability at 50 µM [3, 5]: 6% | viability at 50 µM [3, 7]: 6%

Nogalamycin [NSC70845]
Residual viable cells (%) 20 μM (SYBR Green I/PI assay) [2]: 3% | Residual viable cells (SYBR Green I/PI assay) [2]: 0% | Residual viable cells (%) 20 μM (epifluorescence microscope counting) [3]: 15% | Residual viable cells (epifluorescence microscope counting) [3]: 15% | Residual viable cells (%) 50 μM (epifluorescence microscope counting) [3]: 15%

NC(=O)OCC1=C(COC(N)=O)C(=O)c2c(O)ccc(O)c2C1=O [NSC224124, (5,8-dihydroxy-1,4-dioxo-1,4-dihydronaphthalene-2,3-diyl)dimethanediyl dicarbamate]
viability at 20 µM [2]: 54% | viability at 50 µM [2]: 32% | viability at 20 µM [3]: 77% | viability at 50 µM [3, 6]: 31% | viability at 50 µM [3, 7]: 31%

O/N=C(/c1ccccc1)c1ccc2c3c(cccc13)CC2 [NSC137399, 1-(1,2-Dihydro-5-acenaphthylenyl)-N-hydroxy-1-phenylmethanimine]
viability at 50 µM [2]: 51% | viability at 50 µM [3, 7]: 41%

CC[C@@]1(O)C[C@H](O[C@H]2C[C@H](N(C)C)[C@H](O)[C@H](C)O2)c2c(O)c3c(c(O)c2[C@H]1O[C@H]1C[C@H](N(C)C)[C@H](O)[C@H](C)O1)C(=O)c1cccc(O)c1C3=O [NSC136044, Rhodomycin A]
Residual viable cells (%) 20 μM (SYBR Green I/PI assay) [2]: 5% | Residual viable cells (SYBR Green I/PI assay) [2]: 0% | Residual viable cells (%) 20 μM (epifluorescence microscope counting) [3]: 21% | Residual viable cells (epifluorescence microscope counting) [3]: 22% | Residual viable cells (%) 50 μM (epifluorescence microscope counting) [3]: 21%

Cc1c2oc3c(C)ccc(C(=O)N[C@@H]4C(=O)N[C@H](C(C)C)C(=O)N5CCC[C@H]5C(=O)N(C)CC(=O)N(C)[C@@H](C(C)C)C(=O)O[C@@H]4C)c3nc-2c(C(=O)N[C@@H]2C(=O)N[C@H](C(C)C)C(=O)N3CCC[C@H]3C(=O)N(C)CC(=O)N(C)[C@@H](C(C)C)C(=O)O[C@@H]2C)c(N)c1=O [NSC3053, Dactinomycin] (I: T[dV]P[Sar][NMeV] / II: T[dV]P[Sar][NMeV]; ester I:1-I:C, II:1-II:C; linker I:N-II:N via Actinocin(9to1))
MIC ([1]; listed as Dactinomycin): ≦0.78 μg/mL | MIC ([1]; listed as dactinomycin): ≤ 0.78 mg/L | Residual viable cells (SYBR Green I/PI assay) [2]: 37% | Residual viable cells (epifluorescence microscope counting) [3]: 30% | Activity against persisters (residual viable cell percentage) ([3]; stationary phase persisters): 30%

Cc1ccc(NCCN(C)C)c2c(=O)c3cc(O)ccc3sc12 [NSC317003, 9H-Thioxanthen-9-one, 1-[[2-(dimethylamino)ethyl]amino]-7-hydroxy-4-methyl-, monohydriodide]
viability at 50 µM [2]: 29% | viability at 50 µM [3, 7]: 30%

C=CCNc1ncnc2sc(SC)nc12 [NSC343783, N-Allyl-2-(methylthio)[1,3]thiazolo[5,4-d]pyrimidin-7-amine]
viability at 50 µM [2]: 67% | viability at 50 µM [3, 7]: 20%
